Measurements published in patent US20200138827A1, “SMALL MOLECULE MODULATORS OF HUMAN STING” (Curadev Pharma Limited, priority 2017, published 2020).

Molecular target: T1, WT/R232 STING protein (Homo sapiens, UniProt Q86WV6, H232R)
T1 construct: host or cells: HEK293T
Assay: Luciferase reporter assay in HEK293T-hSTING-Luciferase cells, WT/R232
Assay type: cell-based
Conditions: 20 hr stimulation, read-out: R232 Activity (EC50 range)
Description: • a) Stable STING expressing cells—Stable HEK293T STING-expressing cell lines were generated using plasmids purchased from Invivogen, Calif., USA, that contain STING cDNA cloned into the pUNO-1 vector under hEF1-HTLV promoter and containing the Blasticidin selection cassette. The plasmids hSTING(R232), hSTING(H232), hSTING(HAQ) were directly procured from Invivogen while hSTING (AQ) and hSTING (Q) were derived from hSTING(HAQ) and hSTING (R232) plasmids respectively by using a PCR based site directed mutagenesis method. These vectors were individually transfected into HEK293T cells using Lipofectamine (Invitrogen) and transfected cells were selected under Blasticidin selection. These transfected cells were further subjected to clonal selection using the limiting dilution method to obtain clonally pure populations of HEK cells transfected with each of the above mentioned human STING variants. Only those clones were selected in which ligand independent activation of STING was minimal. • b) Stable Luciferase reporter gene expressing cells—Stable HEK293T Luciferase reporter gene expressing cell lines were generated using pCDNA4 plasmids under an IRF-inducible promoter. This promoter is comprised of five tandem interferon-stimulated response elements (ISRE) fused to an ISG54 minimal promoter. This vector was transfected into HEK293T cells using Lipofectamine (Invitrogen) and transfected cells were selected under Zeocin selection. These transfected cells were further subjected to clonal selection using the limiting dilution method to obtain clonally pure populations of HEK cells transfected the Luciferase reporter construct. Only those clones were selected in which ligand independent induction of luciferase was minimal.
5×10^5 clonally selected HEK293T-hSTING-Luciferase cells were seeded in 384-well plates in growth medium and stimulated with novel compounds. After 20 hr of stimulation supernatant were removed and secretary reporter gene activity were measured using the Quanti-Luc detection system (Invivogen) on a Spectramax i3X luminometer.
All compounds were first tested in a primary screen using WT/R232 STING protein to obtain a ‘fold-induction’ over baseline levels of protein activity.

T1 sequence (Q86WV6 whole entry H232R): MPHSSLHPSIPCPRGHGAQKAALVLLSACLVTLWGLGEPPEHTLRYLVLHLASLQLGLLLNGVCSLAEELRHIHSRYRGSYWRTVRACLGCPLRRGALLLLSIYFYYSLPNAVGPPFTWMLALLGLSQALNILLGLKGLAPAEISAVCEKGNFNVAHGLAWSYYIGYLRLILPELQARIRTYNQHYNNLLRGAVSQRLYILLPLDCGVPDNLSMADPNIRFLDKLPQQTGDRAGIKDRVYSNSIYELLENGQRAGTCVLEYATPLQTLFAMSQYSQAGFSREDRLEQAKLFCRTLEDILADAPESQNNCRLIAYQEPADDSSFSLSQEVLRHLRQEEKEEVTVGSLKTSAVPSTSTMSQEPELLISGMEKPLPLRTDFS

| EC50 [µM] | SMILES |
| --- | --- |
| 1 to 10 | Cc1noc(CNC(=O)c2ccc3c(c2)N(Cc2ccccc2)C(=O)CS3)n1 [Example 66, 4-benzyl-N-((3-methyl-1,2,4-oxadiazol-5-yl)methyl)-3-oxo-3,4-dihydro-2H-benzo[b-1,4]thiazine-6-carboxamide] |
| > 10 | O=C(NCC1CCN(c2ccccc2)CC1)c1ccc2c(c1)N(Cc1ccccc1F)C(=O)CS2 [Example 45, 4-(2-fluorobenzyl)-3-oxo-N-((1-phenyl-piperidin-4-yl)methyl)-3,4-dihydro-2H-benzo[b][1,4] thiazine-6-carboxamide] |
| > 10 | Cc1cc(CN2C(=O)CSc3ccc(C(=O)NCc4ccco4)cc32)no1 [Example 85, N-(furan-2-ylmethyl)-4-((5-methylisoxazol-3-yl)methyl)-3-oxo-3,4-dihydro-2H-benzo[b-1,4]thiazine-6-carboxamide] |
| > 10 | NC(=O)c1cc(C(=O)NCc2c(F)cc(F)cc2F)cc2c1SCC(=O)N2Cc1ccc(F)cc1 [Example 225, 4-(4-fluorobenzyl)-3-oxo-N6-(2,4,6-trifluorobenzyl)-3,4-dihydro-2H-benzo[b][1,4] thiazine-6,8-dicarboxamide] |
| 1 to 10 | CC1(O)Sc2ccc(C(=O)NCc3c(F)cc(F)cc3F)cc2N(Cc2c(F)cccc2Cl)C1=O (stereo not shown) [Example 164, 4-(2-chloro-6-fluorobenzyl)-2-hydroxy-2-methyl-3-oxo-N-(2,4,6-trifluorobenzyl)-3,4-dihydro-2H-benzo[b][1,4] thiazine-6-carboxamide] |
| > 10 | Cc1noc(CNC(=O)c2cnc3c(c2)N(Cc2cc(F)cc(F)c2)C(=O)C(C)S3)n1 (stereo not shown) [Example 212, 1-(3,5-difluorobenzyl)-3-methyl-N-((3-methyl-1,2,4-oxadiazol-5-yl)methyl)-2-oxo-2,3-dihydro-1H-pyrido[2,3-b] [1,4] thiazine-7-carboxamide] |
| < 1 | COc1cc(F)c(CN2C(=O)CSc3ccc(C(=O)NCc4c(F)cc(F)cc4F)cc32)c(F)c1 [Example 114, 4-(2,6-difluoro-4-methoxybenzyl)-3-oxo-N-(2,4,6-trifluorobenzyl)-3,4-dihydro-2H-benzo[b][1,4] thiazine-6-carboxamide] |
| > 10 | CC1Sc2ncc(C(=O)NCc3cc4ccccc4o3)cc2N(Cc2cc(F)cc(F)c2)C1=O (stereo not shown) [Example 208, N-(benzofuran-2-ylmethyl)-1-(3,5-difluorobenzyl)-3-methyl-2-oxo-2,3-dihydro-1H-pyrido[2,3-b][1,4] thiazine-7-carboxamide] |
| > 10 | CC1Sc2ccc(C(=O)NCc3ccn(C)n3)cc2N(Cc2c(F)cccc2Cl)C1=O (stereo not shown) [Example 172, 4-(2-chloro-6-fluorobenzyl)-2-methyl-N-((1-methyl-1H-pyrazol-3-yl)methyl)-3-oxo-3,4-dihydro-2H-benzo[b] [1,4]thiazine-6-carboxamide] |
| > 10 | O=C(NCc1ccco1)c1ccc2c(c1)N(Cc1cccnc1)C(=O)CS2 [Example 27, N-(furan-2-ylmethyl)-3-oxo-4-(pyridin-3-ylmethyl)-3,4-dihydro-2H-benzo[b-1,4]thiazine-6-carboxamide] |
| > 10 | O=C(NCc1ccco1)c1ccc2c(c1)N(CCc1cccc(Cl)c1)C(=O)CS2 [Example 90, 4-(3-chlorophenethyl)-N-(furan-2-ylmethyl)-3-oxo-3,4-dihydro-2H-benzo[b-1,4]thiazine-6-carboxamide] |
| > 10 | O=C(NCc1ccco1)c1cnc2c(c1)N(Cc1c(F)cccc1Cl)C(=O)CS2 [Example 177, 1-(2-Chloro-6-fluorobenzyl)-N-(furan-2-ylmethyl)-2-oxo-2,3-dihydro-1H-pyrido[2,3-b-1,4]thiazine-7-carboxamide] |
| > 10 | Cc1nc(CNC(=O)c2ccc3c(c2)N(Cc2ccccc2)C(=O)CS3)cs1 [Example 77, 4-benzyl-N-((2-methylthiazol-4-yl)methyl)-3-oxo-3,4-dihydro-2H-benzo[b-1,4]thiazine-6-carboxamide] |
| > 10 | O=C(NCc1cccc2ccccc12)c1ccc2c(c1)N(Cc1ccccc1F)C(=O)CS2 [Example 26, 4-(2-fluorobenzyl)-N-(naphthalen-1-ylmethyl)-3-oxo-3,4-dihydro-2H-benzo[b-1,4]thiazine-6-carboxamide] |
| > 10 | O=C(NCc1cccc(-c2ccccc2)c1)c1ccc2c(c1)N(Cc1c(F)cccc1Cl)C(=O)CS2 [Example 47, N-([1,1′-biphenyl]-3-ylmethyl)-4-(2-chloro-6-fluorobenzyl)-3-oxo-3,4-dihydro-2H-benzo[b][1,4] thiazine-6-carboxamide] |
| > 10 | O=C(NCC12C[C@H]3C[C@@H](C1)C[C@@H](C2)C3)c1ccc2c(c1)N(Cc1ccccc1F)C(=O)CS2 [Example 24, N-((3r,5r,7r)-adamantan-1-ylmethyl)-4-(2-fluorobenzyl)-3-oxo-3,4-dihydro-2H-benzo[b-1,4]thiazine-6-carboxamide] |

| EC50 [µM] | SMILES |
| --- | --- |
| > 10 | O=C(NCc1ccccn1)c1ccc2c(c1)N(Cc1c(F)cccc1Cl)C(=O)CS2 [Example 108, 4-(2-chloro-6-fluorobenzyl)-3-oxo-N-(pyridin-2-ylmethyl)-3,4-dihydro-2H-benzo[b-1,4]thiazine-6-carboxamide] |
| > 10 | O=C(NCc1ccco1)c1ccc2c(c1)N(Cc1c(F)cccc1Cl)C(=O)CC2 [Example 268, 1-(2-chloro-6-fluorobenzyl)-N-(furan-2-ylmethyl)-2-oxo-1,2,3,4-tetrahydroquinoline-7-carboxamide] |
| > 10 | O=C(NCc1ncco1)c1ccc2c(c1)N(Cc1ccccc1)C(=O)CS2 [Example 59, 4-benzyl-N-(oxazol-2-ylmethyl)-3-oxo-3,4-dihydro-2H-benzo[b-1,4]thiazine-6-carboxamide] |
| > 10 | O=C(NCc1ccco1)c1ccc2c(c1)N(Cc1cccc(OC(F)(F)F)c1)C(=O)CS2 [Example 88, N-(furan-2-ylmethyl)-3-oxo-4-(3-(trifluoromethoxy)benzyl)-3,4-dihydro-2H-benzo[b-1,4]thiazine-6-carboxamide] |
| > 10 | CC1Oc2ncc(C(=O)NCc3cccc(C(F)(F)F)c3)cc2N(Cc2c(F)cccc2Cl)C1=O (stereo not shown) [Example 244, 1-(2-chloro-6-fluorobenzyl)-3-methyl-2-oxo-N-(3-(trifluoromethyl)benzyl)-2,3-dihydro-1H-pyrido[2,3-b][1,4]oxazine-7-carboxamide] |
| > 10 | O=C(NCc1cnccn1)c1ccc2c(c1)N(Cc1ccccc1)C(=O)CS2 [Example 58, 4-benzyl-3-oxo-N-(pyrazin-2-ylmethyl)-3,4-dihydro-2H-benzo[b-1,4]thiazine-6-carboxamide] |
| > 10 | Cc1cnc(CNC(=O)c2ccc3c(c2)N(Cc2ccccc2)C(=O)CS3)o1 [Example 63, 4-benzyl-N-((5-methyloxazol-2-yl)methyl)-3-oxo-3,4-dihydro-2H-benzo[b-1,4]thiazine-6-carboxamide] |
| > 10 | Cn1nccc1CNC(=O)c1ccc2c(c1)N(Cc1ccccc1)C(=O)CS2 [Example 67, 4-benzyl-N-((1-methyl-1H-pyrazol-5-yl)methyl)-3-oxo-3,4-dihydro-2H-benzo[b-1,4]thiazine-6-carboxamide] |
| > 10 | O=C(NCc1ccco1)c1cc(C2CC2)c2c(c1)N(Cc1ccccc1F)C(=O)CS2 [Example 227] |
| > 10 | O=C(NCc1ccco1)c1ccc2c(c1)N(Cc1cn3ccsc3n1)C(=O)CS2 [Example 104, N-(furan-2-ylmethyl)-4-(imidazo[2,1-b]thiazol-6-ylmethyl)-3-oxo-3,4-dihydro-2H-benzo[b-1,4]thiazine-6-carboxamide] |
| > 10 | O=C(NCc1c(F)cc(F)cc1F)c1ccc2c(c1)N(C(=O)c1ccncc1)CCS2 [Example 260, 4-isonicotinoyl-N-(2,4,6-trifluorobenzyl)-3,4-dihydro-2H-benzo[b][1,4]thiazine-6-carboxamide] |
| > 10 | N#CCN(Cc1ccccc1)C(=O)c1ccc2c(c1)N(Cc1ccccc1)C(=O)CS2 [Example 56, N,4-dibenzyl-N-(cyanomethyl)-3-oxo-3,4-dihydro-2H-benzo[b-1,4]thiazine-6-carboxamide] |
| > 10 | NCCC1Sc2ccc(C(=O)NCc3ccc(F)cc3F)cc2N(Cc2cc(F)cc(F)c2)C1=O (stereo not shown) [Example 166, 2-(2-aminoethyl)-N-(2,4-difluorobenzyl)-4-(3,5-difluorobenzyl)-3-oxo-3,4-dihydro-2H-benzo[b] [1,4]thiazine-6-carboxamide] |
| 1 to 10 | Cc1ccc(CNC(=O)c2cnc3c(c2)N(Cc2c(F)cccc2Cl)C(=O)CS3)o1 [Example 207, 1-(2-chloro-6-fluorobenzyl)-N-((5-methylfuran-2-yl)methyl)-2-oxo-2,3-dihydro-1H-pyrido [2,3-b][1,4] thiazine-7-carboxamide] |
| > 10 | CC1(C)C2CC(CNC(=O)c3ccc4c(c3)N(Cc3ccccc3F)C(=O)CS4)CC1C2 (stereo not shown) [Example 22, N-((6,6-dimethyl-bicyclo[3.1.1]heptan-3-yl)methyl)-4-(2-fluorobenzyl)-3-oxo-3,4-dihydro-2H-benzo[b-1,4]thiazine 6-carboxamide] |
